Laboratory results from the NIST ThermoML archive (doi:10.1016/j.jct.2013.05.003).

Assay: xn = mol fraction of the nth substance listed
Conditions: 101.3 kPa, Liquid, fixed-path interferometer

CCOCCCN [3-ethoxy-1-propanamine] + O
speed of sound [m/s]
Conditions | 283.15 K | 288.15 K | 293.15 K | 298.15 K | 303.15 K
x1 = 0.0001081 | 1448.8 | 1466.3 | 1483.4 | 1497.2 | 1509.6
x1 = 0.0003191 | 1450 | 1467.4 | 1484.5 | 1498 | 1510.4
x1 = 0.0006252 | 1451.8 | 1469.1 | 1486 | 1499.4 | 1511.6
x1 = 0.000707 | 1452.2 | – | – | – | –
x1 = 0.0009424 | 1453.7 | 1470.9 | 1486.9 | 1500.9 | 1512.8
x1 = 0.001046 | 1454.2 | – | – | – | –
x1 = 0.001284 | 1455.6 | 1472.6 | 1489.1 | 1502.2 | 1514.2
x1 = 0.001947 | 1459.5 | 1476.2 | 1491.7 | 1505.4 | 1516.8
x1 = 0.002912 | 1465.1 | 1481.3 | 1496.4 | 1509.6 | 1520.7
x1 = 0.00392 | 1470.9 | 1486.6 | 1501.2 | 1514 | 1524.7
x1 = 0.005098 | 1477.6 | 1492.8 | 1506.8 | 1519 | 1529.2
x1 = 0.007456 | 1491 | 1505 | – | – | –
x1 = 0.00981 | 1504 | 1516.7 | 1528.6 | 1538.8 | 1547.2
x1 = 0.0148 | 1530.2 | 1540.6 | 1550.3 | 1558.4 | 1565
x1 = 0.01956 | 1554 | 1562.9 | 1569.7 | 1576 | 1580.7
x1 = 0.02832 | 1594.2 | 1599 | 1602.1 | 1604.7 | 1606.4
x1 = 0.03914 | 1636.5 | 1636.7 | 1635.3 | 1633.7 | 1631.8
x1 = 0.05082 | 1672.1 | 1668 | 1662.5 | 1657.2 | 1651.3
x1 = 0.06674 | 1704.8 | 1695.7 | 1685.7 | 1676.2 | 1666.3
x1 = 0.09536 | 1724 | 1709.3 | 1695.7 | 1681.6 | 1667.7
x1 = 0.1209 | 1715.9 | 1700.4 | 1684.2 | 1668.3 | 1653.1
x1 = 0.1452 | 1699.3 | 1682.6 | 1666.7 | 1650.2 | 1633.9
x1 = 0.1844 | 1669 | 1651.6 | 1634.3 | 1617.3 | 1600.4
x1 = 0.2121 | 1645.8 | 1627.7 | 1610.5 | 1593.4 | 1576.1
x1 = 0.2438 | 1623.7 | 1604.4 | 1587.9 | 1569.9 | 1552.3
x1 = 0.2923 | 1593 | 1575 | 1557.5 | 1539.4 | 1521.5
x1 = 0.361 | 1556.4 | 1535.7 | 1518.2 | 1499.2 | 1480.9
x1 = 0.4369 | 1524.2 | 1504.5 | 1485.9 | 1466.9 | 1448.1
x1 = 0.493 | – | – | 1461.7 | 1442.5 | –
x1 = 0.4937 | 1501.5 | 1481 | 1461.8 | 1442.6 | 1423.4
x1 = 0.5513 | 1482.2 | 1461.9 | 1442.2 | 1422.7 | 1403.3
x1 = 0.6214 | 1462.5 | 1441.5 | 1421.8 | 1402 | 1382.3
x1 = 0.6775 | 1448.2 | 1426.9 | 1407.3 | 1386.7 | 1366.7
x1 = 0.6943 | 1444.5 | 1423.4 | 1402.9 | 1383.1 | 1363.1
x1 = 0.7458 | 1432.9 | 1411.3 | 1391.1 | 1370.8 | 1350.5
x1 = 0.7733 | 1427.7 | – | 1385.3 | 1365.2 | 1344.8
x1 = 0.7947 | 1422.9 | 1401.1 | 1380.6 | 1360.2 | 1339.8
x1 = 0.8276 | 1416.8 | 1395.1 | 1374.1 | 1353.6 | 1333.2
x1 = 0.8488 | 1412.3 | 1390.7 | – | 1349.3 | –
x1 = 0.8744 | 1408.1 | – | 1365.1 | 1344.6 | 1324
x1 = 0.8993 | 1403 | 1381.5 | 1360 | 1339.3 | 1319.2
x1 = 0.9189 | 1399.9 | 1378 | 1356.7 | 1335.6 | 1315.1
x1 = 0.9349 | – | 1375 | – | – | –
x1 = 0.9411 | 1395.9 | – | 1352.4 | 1331.8 | 1311.1
x1 = 0.9436 | – | 1373.5 | – | – | –
x1 = 0.9486 | 1394.8 | – | 1351.3 | 1330.7 | 1309.8
x1 = 0.9551 | – | 1371.3 | – | – | –
x1 = 0.9601 | 1392.6 | 1370.4 | – | – | –
x1 = 0.9613 | – | – | 1349 | 1327.9 | 1307.3
x1 = 0.9746 | – | 1367.5 | – | 1325.7 | 1304.7
x1 = 0.9755 | – | 1367.8 | – | – | –
x1 = 0.985 | 1391 | 1366.2 | – | – | –
x1 = 0.9871 | – | – | 1344.3 | 1321.5 | 1302.4
x1 = 1 | 1386.4 | 1364.2 | 1342 | 1321.2 | 1300.4
